Literature values in patent US20160186266A1, “MOLECULAR PROFILING FOR PERSONALIZED MEDICINE” (CARIS LIFE SCIENCES, INC., priority 2009, published 2016).

Tests used:
c-Kit = c-Kit (Homo sapiens, UniProt P10721)
[1] = test system: platelet-derived growth factor receptor (PDGFR)

c-Kit, sequence (P10721 26-976): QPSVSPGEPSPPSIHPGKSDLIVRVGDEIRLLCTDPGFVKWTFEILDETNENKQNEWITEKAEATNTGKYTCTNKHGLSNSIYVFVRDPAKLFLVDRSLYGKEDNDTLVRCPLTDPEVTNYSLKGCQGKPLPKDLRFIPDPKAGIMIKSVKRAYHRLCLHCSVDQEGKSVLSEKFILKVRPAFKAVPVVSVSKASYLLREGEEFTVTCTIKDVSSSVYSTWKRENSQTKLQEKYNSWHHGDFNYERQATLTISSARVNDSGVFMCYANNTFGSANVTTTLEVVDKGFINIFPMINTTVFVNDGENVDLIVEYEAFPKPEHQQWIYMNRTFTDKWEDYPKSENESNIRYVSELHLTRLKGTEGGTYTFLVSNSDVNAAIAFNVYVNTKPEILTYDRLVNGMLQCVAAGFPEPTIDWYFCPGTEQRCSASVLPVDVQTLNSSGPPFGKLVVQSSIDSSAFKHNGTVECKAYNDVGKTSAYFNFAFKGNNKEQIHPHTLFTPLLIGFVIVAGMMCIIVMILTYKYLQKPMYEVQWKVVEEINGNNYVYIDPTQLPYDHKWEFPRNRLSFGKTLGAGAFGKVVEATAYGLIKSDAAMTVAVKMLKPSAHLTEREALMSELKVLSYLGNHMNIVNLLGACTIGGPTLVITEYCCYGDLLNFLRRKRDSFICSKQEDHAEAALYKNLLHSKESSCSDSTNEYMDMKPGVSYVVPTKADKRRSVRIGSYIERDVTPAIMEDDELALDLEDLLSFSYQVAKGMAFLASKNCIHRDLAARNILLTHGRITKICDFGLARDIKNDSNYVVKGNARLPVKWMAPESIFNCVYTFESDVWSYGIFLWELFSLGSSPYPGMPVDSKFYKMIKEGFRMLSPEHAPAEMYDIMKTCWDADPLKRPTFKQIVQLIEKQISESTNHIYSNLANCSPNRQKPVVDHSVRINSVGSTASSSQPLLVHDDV

Cc1ccc(NC(=O)c2ccc(CN3CCN(C)CC3)cc2)cc1Nc1nccc(-c2cccnc2)n1 [Imatinib]
effect on kinase activity (c-Kit): block the activity | effect on kinase activity [1]: block the activity
